Experiments:
[1] = test system: Puccinia recondita f. Sp. Tritici; assay: Puccinia recondita f. sp. tritici / wheat / leaf disc preventative (brown rust); assay type: in vivo; conditions: foliar, 168 h, 200 ppm in the applied formulation, wheat leaf segments cv. Kanzler, preventative, inoculated 1 day after application, assessed 7 to 9 days after application, vs untreated, read-out: disease control
In short: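 Preventative leaf-segment test: spray application of diluted formulated compound on wheat cv. Kanzler, spore inoculation after 1 day. Percent control relative to untreated segments rated 7 to 9 days post-application, with incubation at 19° C, 75% relative humidity, 12 h photoperiod.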

[2] = test system: Glomerella Lagenarium (Colletotrichum Lagenarium); assay: Glomerella lagenarium (Colletotrichum lagenarium) liquid culture / cucumber / preventative (anthracnose); assay type: cell-based; conditions: Colletotrichum orbiculare; 20 ppm in the applied formulation; liquid culture in PDB, 24° C., inhibition of growth measured photometrically 3 to 4 days after application, vs untreated; read-out: disease control
In short: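 Conidia from cryogenic storage were mixed into potato dextrose broth. This was added to compound diluted from DMSO into 0.025% Tween20, tested at 20 ppm. Plates were incubated in the dark at 24 °C and 96% relative humidity, and growth was read photometrically after 2–7 days as % activity versus untreated check.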

[3] = test system: Phakopsora pachyrhizi; assay: Phakopsora pachyrhizi / soybean / leaf disc preventative (Asian soybean rust); assay type: in vivo; conditions: foliar, 288 h, 200 ppm in the applied formulation, soybean leaf disks, inoculated one day after application, assessed 12 to 14 days after application, vs untreated, read-out: disease control
Method: (§1) Leaf disks or leaf segments of various plant species are cut from plants grown in a greenhouse. The cut leaf disks or segments are placed in multiwell plates (24-well format) onto water agar. The leaf disks are sprayed with a test solution before (preventative) or after (curative) inoculation. Compounds to be tested are prepared as DMSO solutions (max. 10 mg/ml) which are diluted to the appropriate concentration with 0.025% Tween20 just before spraying. The inoculated leaf disks or segments are incubated under defined conditions (temperature, relative humidity, light, etc.) according to the respective test system. A single evaluation of disease level is carried out 3 to 14 days after inoculation, depending on the pathosystem. Percent disease control relative to the untreated check leaf disks or segments is then calculated.
Soybean leaf disks are placed on water agar in multiwell plates (24-well format) and sprayed with the formulated test compound diluted in water. One day after application leaf discs are inoculated by spraying a spore suspension on the lower leaf surface. After an incubation period in a climate cabinet of 24-36 hours in darkness at 20° C. and 75% rh leaf disc are kept at 20° C. with 12 h light/day and 75% rh. The activity of a compound is assessed as percent disease control compared to untreated when an appropriate level of disease damage appears in untreated check leaf disks (12 to 14 days after application).
(§2) The following compounds at 200 ppm in the applied formulation give at least 80% disease control in this test when compared to untreated control leaf disks under the same conditions, which show extensive disease development.

[4] = test system: Puccinia recondita f. Sp. Tritici; assay: Puccinia recondita f. sp. tritici / wheat / leaf disc curative (brown rust); assay type: in vivo; conditions: foliar, 144 h, 200 ppm in the applied formulation, wheat leaf segments cv. Kanzler, applied 1 day after inoculation, assessed 6 to 8 days after application, vs untreated, read-out: disease control
Method: as §1
Wheat leaf segments cv. Kanzler are placed on agar in multiwell plates (24-well format). The leaf segments are then inoculated with a spore suspension of the fungus. Plates were stored in darkness at 19° C. and 75% relative humidity. The formulated test compound diluted in water was applied 1 day after inoculation. The leaf segments were incubated at 19° C. and 75% relative humidity under a light regime of 12 hours light/12 hours darkness in a climate cabinet and the activity of a compound was assessed as percent disease control compared to untreated when an appropriate level of disease damage appears in untreated check leaf segments (6 to 8 days after application).
as §2

SMILES | pest or weed control at 200 ppm [1] | inhibition of growth at 20 ppm [2] | pest or weed control at 200 ppm [3] | pest or weed control at 200 ppm [4]
FC(F)(F)c1ccn(Cc2ccc(-c3noc(C(F)(F)F)n3)cc2)n1 [Compound 1.21, 5-(trifluoromethyl)-3-[4-[[3-(trifluoromethyl)pyrazol-1-yl]methyl]phenyl]-1,2,4-oxadiazole] | ≥ 80% | ≥ 80% | ≥ 80% | 
CC(=O)c1cccn1Cc1ccc(-c2noc(C(F)(F)F)n2)cc1 [Compound 1.59, 1-[1-[[4-[5-(trifluoromethyl)-1,2,4-oxadiazol-3-yl]phenyl]methyl]pyrrol-2-yl]ethanone] |  | ≥ 80% | ≥ 80% | 
N#Cc1ncn(Cc2ccc(-c3noc(C(F)(F)F)n3)cn2)c1C#N [Compound 1.135, 1-[[5-[5-(trifluoromethyl)-1,2,4-oxadiazol-3-yl]-2-pyridyl]methyl]imidazole-4,5-dicarbonitrile] | ≥ 80% | ≥ 80% |  | ≥ 80%
FC(F)(F)c1nc(-c2ccc(Cn3cnc(Cl)c3Cl)nc2)no1 [Compound 1.137, 3-[6-[(4,5-dichloroimidazol-1-yl)methyl]-3-pyridyl]-5-(trifluoromethyl)-1,2,4-oxadiazole] | ≥ 80% | ≥ 80% |  | ≥ 80%
FC(F)(F)c1nc(-c2ccc(Cn3cc(I)cn3)nc2)no1 [Compound 1.144, 3-[6-[(4-iodopyrazol-1-yl)methyl]-3-pyridyl]-5-(trifluoromethyl)-1,2,4-oxadiazole] | ≥ 80% | ≥ 80% |  | ≥ 80%
FC(F)(F)c1nc(-c2ccc(Cn3nnnc3-c3ccccc3Br)cc2)no1 [Compound 1.152, 3-[4-[[5-(2-bromophenyl)tetrazol-1-yl]methyl]phenyl]-5-(trifluoromethyl)-1,2,4-oxadiazole] |  | ≥ 80% | ≥ 80% | 
FC(F)(F)c1nc(-c2ccc(Cn3nnc(-c4ccccc4Br)n3)cc2)no1 [Compound 1.153, 3-[4-[[5-(2-bromophenyl)tetrazol-2-yl]methyl]phenyl]-5-(trifluoromethyl)-1,2,4-oxadiazole] |  |  | ≥ 80% | 
N#Cc1cc2n(Cc3ccc(-c4noc(C(F)(F)F)n4)cc3)cccc-2n1 [Compound 1.157, 4-[[4-[5-(trifluoromethyl)-1,2,4-oxadiazol-3-yl]phenyl]methyl]pyrrolo[3,2-b]pyridine-2-carbonitrile] | ≥ 80% | ≥ 80% | ≥ 80% | 
N#Cc1cc2ncccc2n1Cc1ccc(-c2noc(C(F)(F)F)n2)cc1 [Compound 1.158, 1-[[4-[5-(trifluoromethyl)-1,2,4-oxadiazol-3-yl]phenyl]methyl]pyrrolo[3,2-b]pyridine-2-carbonitrile] | ≥ 80% | ≥ 80% | ≥ 80% | 
FC(F)(F)c1nc(-c2ccc(Cn3nnc4cc(Cl)c(Oc5ccc6c(c5)OCO6)cc43)cc2)no1 [Compound 1.177, 3-[4-[[6-(1,3-benzodioxol-5-yloxy)-5-chloro-benzotriazol-1-yl]methyl]phenyl]-5-(trifluoromethyl)-1,2,4-oxadiazole] |  |  | ≥ 80% | 
CCOC(=O)c1ccc2c(c1)nnn2Cc1ccc(-c2noc(C(F)(F)F)n2)cc1 [Compound 1.184, ethyl 1-[[4-[5-(trifluoromethyl)-1,2,4-oxadiazol-3-yl]phenyl]methyl]benzotriazole-5-carboxylate] |  | ≥ 80% | ≥ 80% | 
CCOC(=O)c1ccc2nn(Cc3ccc(-c4noc(C(F)(F)F)n4)cc3)nc2c1 [Compound 1.185, ethyl 2-[[4-[5-(trifluoromethyl)-1,2,4-oxadiazol-3-yl]phenyl]methyl]benzotriazole-5-carboxylate] |  | ≥ 80% | ≥ 80% | 
CCOC(=O)c1cc(C2CC2)nn1Cc1ccc(-c2noc(C(F)(F)F)n2)cc1 [Compound 1.187, ethyl 5-cyclopropyl-2-[[4-[5-(trifluoromethyl)-1,2,4-oxadiazol-3-yl]phenyl]methyl]pyrazole-3-carboxylate] |  |  | ≥ 80% | 
Cc1nc2ccc(C(F)(F)F)cc2n1Cc1ccc(-c2noc(C(F)(F)F)n2)cc1 [Compound 1.190, 3-[4-[[2-methyl-6-(trifluoromethyl)benzimidazol-1-yl]methyl]phenyl]-5-(trifluoromethyl)-1,2,4-oxadiazole] |  | ≥ 80% | ≥ 80% | 
N#Cc1nn(Cc2ccc(-c3noc(C(F)(F)F)n3)cc2)c2cc(F)ccc12 [Compound 1.194, 6-fluoro-1-[[4-[5-(trifluoromethyl)-1,2,4-oxadiazol-3-yl]phenyl]methyl]indazole-3-carbonitrile] |  | ≥ 80% | ≥ 80% | 
FC(F)(F)c1cc(Cl)c2nnn(Cc3ccc(-c4noc(C(F)(F)F)n4)cc3)c2c1 [Compound 1.195, 3-[4-[[4-chloro-6-(trifluoromethyl)benzotriazol-1-yl]methyl]phenyl]-5-(trifluoromethyl)-1,2,4-oxadiazole] |  |  | ≥ 80% | 
Cc1ccc2c(nnn2Cc2ccc(-c3noc(C(F)(F)F)n3)cc2)c1C [Compound 1.198, 3-[4-[(4,5-dimethylbenzotriazol-1-yl)methyl]phenyl]-5-(trifluoromethyl)-1,2,4-oxadiazole] |  | ≥ 80% | ≥ 80% | 
Cc1ccc(-c2nnnn2Cc2ccc(-c3noc(C(F)(F)F)n3)cc2)cc1 [Compound 1.201, 3-[4-[[5-(p-tolyl)tetrazol-1-yl]methyl]phenyl]-5-(trifluoromethyl)-1,2,4-oxadiazole] |  |  | ≥ 80% | 
CCOC(=O)c1cnn(Cc2ccc(-c3noc(C(F)(F)F)n3)cc2)c1C(F)F [Compound 1.205, ethyl 5-(difluoromethyl)-1-[[4-[5-(trifluoromethyl)-1,2,4-oxadiazol-3-yl]phenyl]methyl]pyrazole-4-carboxylate] |  | ≥ 80% | ≥ 80% | 
COc1ccc(-c2cc(C=O)n(Cc3ccc(-c4noc(C(F)(F)F)n4)cc3)n2)cc1 [Compound 1.223, 5-(4-methoxyphenyl)-2-[[4-[5-(trifluoromethyl)-1,2,4-oxadiazol-3-yl]phenyl]methyl]pyrazole-3-carbaldehyde] |  | ≥ 80% | ≥ 80% | 
O=Cc1ccc(-c2nnn(Cc3ccc(-c4noc(C(F)(F)F)n4)cc3)n2)cc1 [Compound 1.227, 4-[2-[[4-[5-(trifluoromethyl)-1,2,4-oxadiazol-3-yl]phenyl]methyl]tetrazol-5-yl]benzaldehyde] |  | ≥ 80% | ≥ 80% | 
N#Cc1nn(Cc2ccc(-c3noc(C(F)(F)F)n3)cc2)c2ccccc12 [Compound 1.228, 1-[[4-[5-(trifluoromethyl)-1,2,4-oxadiazol-3-yl]phenyl]methyl]indazole-3-carbonitrile] |  | ≥ 80% | ≥ 80% | 
FC(F)(F)c1nc(-c2ccc(Cn3nnnc3-c3ccc(Cl)cc3)cc2)no1 [Compound 1.230, 3-[4-[[5-(4-chlorophenyl)tetrazol-1-yl]methyl]phenyl]-5-(trifluoromethyl)-1,2,4-oxadiazole] |  |  | ≥ 80% | 
COc1ccc(Cc2ccc(-c3noc(C(F)(F)F)n3)cc2)cn1 [Compound 1.254, 3-[4-[(6-methoxy-3-pyridyl)methyl]phenyl]-5-(trifluoromethyl)-1,2,4-oxadiazole] | ≥ 80% | ≥ 80% |  | ≥ 80%
CON=C1CCN(Cc2ccc(-c3noc(C(F)(F)F)n3)cc2)C1 [Compound 1.292, N-methoxy-1-[[4-[5-(trifluoromethyl)-1,2,4-oxadiazol-3-yl]phenyl]methyl]pyrrolidin-3-imine] | ≥ 80% | ≥ 80% |  | ≥ 80%

— US10798941B2, “Microbiocidal oxadiazole derivatives” (SYNGENTA PARTICIPATIONS AG, priority 2016, dated 2020)
